Assay results: patent US20230372433A1, “NANOPARTICLE FOR ANTI-CANCER PEPTIDES AND USES THEREOF” (KING'S COLLEGE LONDON, priority 2020, published 2023)
Like-named read-outs stand apart in the source and are kept apart here.

What was measured:
[1] = ANTS/DPX liposome leakage assay, 3POPC/1POPG vesicles; format: biochemical; conditions: for Peptide Concentration-induced 50% ANTS/DPX leakage at pH 4.8 (L/P) 3POPC/1POPG Vesicle / Peptide Concentration-induced 50% ANTS/DPX leakage at pH 7.4 (L/P) 3POPC/1POPG Vesicle: 0.5 mM vesicles; for liposome leakage activity from anionic vesicle at pH 4.8: compared with zwitterionic vesicle
Experimental: (§1) In brief, 0.5 mM POPC vesicles (grey) or POPC:POPG vesicles (ratio 3:1, black) were incubated with peptide concentrations of 0, 0.02, 0.04, 0.08, 0.16, 0.32, 0.64, 1.25, 2.5, 5, 10, and 20 μM in each A) hydrochloric acid-adjusted phosphate buffered saline (1X, pH 4.8) and B) phosphate buffered saline (1X, pH 7.4).
(§2) The lipids 1-palmitoyl-2-oleoyl-sn-glycero-3-phosphocholine (POPC), 1-palmitoyl-2-oleoyl-snglycero-3-phospho-(1′-rac-glycerol) (POPG) were purchased from Avanti Polar Lipids and dissolved in chloroform. Large unilamellar vesicles (LUVs) were produced by extrusion through 100 nm pore filter using an extruder and filters purchased from Avanti Polar Lipids.
(§3) 5 mM ANTS (8-aminonaphthalene-1,3,6-trisulfonic acid, disodium salt) and 12.5 mM DPX (p-xylene-bis-pyridinium bromide) were entrapped in 0.1 μm diameter extruded vesicles with lipids. Gel filtration chromatography using a Sephadex G-100 (GE Healthcare Life Sciences Inc) was used to remove external free ANTS/DPX from LUVs with entrapped contents. LUVs were diluted to 0.5 mM and used to measure the leakage activity by addition of aliquots of peptides. Leakage was measured after 3 h incubation. 10% Triton was used as the positive control to measure the maximum leakage of the vesicle. Fluorescence emission spectra were recorded using excitation and emission wavelength of 350 nm and 510 nm for ANTS/DPX using a BioTek Synergy H1 Hybrid Multi-Mode Reader.
(§4) Table 4 illustrates peptide concentration-induced 50 ANTS/DPX liposome leakage. 0.5 mM POPC and 3POPC/1POPG vesicles were fixed and incubated with titrated peptide concentration (0, 0.02, 0.04, 0.08, 0.16, 0.32, 0.64, 1.25, 2.5, 5, 10, and 20 μM) each in phosphate buffered saline (1X, pH 7.4) and hydrochloric acid-adjusted phosphate buffered saline (1X, pH 4.8). The values are shown as lipid per peptide. IN-terminus is free, C-terminus: —W—NH2.

[2] = system: HEK293T (human embryonic kidney cell); assay: MTT cytotoxicity assay, HEK293T; format: cell-based; conditions: 72 hr, MTT; read-out: IC50 HEK293T
[3] = Tryptophan fluorescent binding assay, 3POPC/1POPG vesicles; conditions: 50 μM peptide, PBS pH 7.4
Experimental: (§5) In brief, 50 μM peptides were fixed and incubated with titrated POPC vesicles (black) or 3POPC/1POPG vesicles (grey) at concentrations of 0, 12.5, 25, 50, 100, 250, 500, 1000, 2500, and 5000 μM in phosphate buffered saline (1X, pH 7.4). The lipid concentration that causes 50% peptide binding was determined using a tryptophan fluorescent binding assay and the values are shown as lipid per peptide.
as §2
(§6) Peptides (50 μM) and POPC/POPG LUVs (600 μM) were prepared in 10 mM phosphate buffer (pH 7.0). The solutions were incubated and measured after 60 minutes. Excitation was fixed at 280 nm (slit 9 nm) and emission was collected from 300 to 450 nm (slit 9 nm). The spectra were recorded using a Synergy H1 Hybrid Multi-Mode Reader (FIG. 3A) and Cytation™ 5 Cell Imaging Multi-Mode Reader (FIG. 2) from BioTek and were averaged over 3 scans.
(§7) Table 3 illustrates the lipid concentration-induced 50% peptide binding onto a liposome. 50 μM peptide was fixed and incubated with titrated lipid (POPC vesicles or 3POPC/1POPG vesicles) at concentrations of 0, 12.5, 25, 50, 100, 250, 500, 1000, 2500, and 5000 μM in phosphate buffered saline (1X, pH 7.4). The lipid concentration that causes 50% peptide binding was determined using tryptophan fluorescent binding assay and the values are shown as lipid per peptide. IN-terminus is free, C-terminus: —W—NH2.

[4] = system: MCF-10A (human breast epithelial cell); assay: cells
Text: HMLER (human mammary endothelial cancer cells), HMLER-shEcad (human mammary endothelial cancer stem cells), and MCF-10A (healthy human mammary endothelial) cells were maintained in Mammary Epithelial Cell Growth Medium (MEGM) with supplements and growth factors: bovine pituitary extract (BPE), hydrocortisone, human epidermal growth factor (hEGF), insulin, and gentamicin/amphotericin-B. HEK293T (human embryonic kidney cell), and U2OS (homo sapiens bone osteosarcoma) cells were maintained in Dulbecco's Modified Eagle's Medium (DMEM) with a final concentration of 10% fetal bovine serum. The cells were grown in T75 flask at 310 K in a humidified atmosphere containing 5% CO2.
The colourimetric MTT (3-(4,5-dimethylthiazol-2-yl)-2,5-diphenyltetrazolium bromide) assay was used to determine the toxicity of the anti-cancer peptides and conventional anti-cancer drugs. 5×10^3 cells were seeded in each well of a 96-well microplate. The cells were incubated overnight. Elevated concentrations of the compounds (0, 0.1, 0.2, 0.4, 0.8, 1.6, 3.1, 6.3, 12.5, 25, 50 and 100 μM) were added and incubated for 72 hr with a total volume 200 μL. The stock solutions of the compounds were prepared as 5 mM solutions in DMSO and diluted using media or in pure water. The final concentration of DMSO in each well was either 0.5% or 0% and this amount was present in the untreated control. After 72 hr, 20 μL of a 4 mg/mL solution of MTT in PBS was added to each well, and the plate was incubated for an additional 4 hr. The MEGM/MTT mixture was aspirated and 100 μL of DMSO was added to dissolve the resulting purple formazan crystals. The absorbance of the solutions in each well was read at 550 nm wavelength. Absorbance values were normalized to either DMSO-containing or non DMSO-containing control wells and plotted as concentration of test compound versus % cell viability. ICso values were interpolated from the resulting dose dependent curves.
The peptides were screened against several different human cell lines and their cytotoxicity were determined. Cell lines utilised include MCF-10A (human breast epithelial cell), HMLER (human breast cancer bulk cell), HMLER-shEcad (human breast cancer stem cell), HEK293T (human embryonic kidney cell), and U2OS (human bone osteosarcoma).

[5] = system: U2OS (human bone osteosarcoma); assay: MTT cytotoxicity assay, U2OS; format: cell-based; conditions: 72 hr
[6] = system: HMLER (human breast cancer bulk cell); assay: MTT cytotoxicity assay, HMLER; format: cell-based; conditions: 72 hr, MTT; read-out: IC50 HMLER
[7] = Tryptophan fluorescent binding assay, POPC vesicles; conditions: 50 μM peptide, PBS pH 7.4
Experimental: as §5, §2, §6, §7

[8] = system: HMLER-shEcad (human breast cancer stem cell); assay: MTT cytotoxicity assay, HMLER-shEcad; format: cell-based; conditions: 72 hr, MTT; read-out: IC50 HMLER-shEcad
[9] = ANTS/DPX liposome leakage assay, POPC vesicles; format: biochemical; conditions: 0.5 mM vesicles
Experimental: as §1, §2, §3, §4

[10] = read-out: IC50 MCF-10A, 72 hr, MTT

Row | Compound | Peptide Concentration-induced 50% ANTS/DPX leakage at pH 4.8 (L/P) 3POPC/1POPG Vesicle [1] | Peptide Concentration-induced 50% ANTS/DPX leakage at pH 7.4 (L/P) 3POPC/1POPG Vesicle [1] | liposome leakage activity from anionic vesicle at pH 4.8 [1] | IC50 [2] | Lipid Concentration-induced 50% Peptide Binding (L/P) 3POPC/1POPG Vesicle [3] | IC50 [4] | IC50 [5] | IC50 [6] | Lipid Concentration-induced 50% Peptide Binding (L/P) POPC Vesicle [7] | IC50 [8] | Peptide Concentration-induced 50% ANTS/DPX leakage at pH 4.8 (L/P) POPC Vesicle [9] | Peptide Concentration-induced 50% ANTS/DPX leakage at pH 7.4 (L/P) POPC Vesicle [9] | IC50 [4, 10]
1 | CC(C)C[C@H](NC(=O)CN)C(=O)N[C@@H](CC(C)C)C(=O)N[C@@H](CCC(=O)O)C(=O)N[C@@H](CC(C)C)C(=O)N[C@@H](CC(C)C)C(=O)N[C@@H](CCC(=O)O)C(=O)N[C@@H](CC(C)C)C(=O)N[C@@H](CC(C)C)C(=O)N[C@@H](CC(C)C)C(=O)N[C@@H](Cc1c[nH]cn1)C(=O)N[C@@H](C)C(=O)N[C@@H](C)C(=O)NCC(=O)N[C@@H](Cc1c[nH]c2ccccc12)C(N)=O [EEH] | 168 L/P | 755 L/P | relatively higher liposome leakage activity | 12.9 ± 0.14 µM | 0.50 L/P | ≥ 100 µM | 19.6 ± 3.96 µM | 3.3 ± 0.14 µM | 0.50 L/P | 3.6 ± 0.85 µM | 58 L/P | 738 L/P | 
2 | CC(C)C[C@H](NC(=O)CN)C(=O)N[C@@H](CC(C)C)C(=O)N[C@@H](CCC(=O)O)C(=O)N[C@@H](CC(C)C)C(=O)N[C@@H](CC(C)C)C(=O)N[C@@H](Cc1c[nH]cn1)C(=O)N[C@@H](CC(C)C)C(=O)N[C@@H](CC(C)C)C(=O)N[C@@H](CC(C)C)C(=O)N[C@@H](CCC(=O)O)C(=O)N[C@@H](C)C(=O)N[C@@H](C)C(=O)NCC(=O)N[C@@H](Cc1c[nH]c2ccccc12)C(N)=O [EHE] | 384 L/P | 706 L/P | relatively higher liposome leakage activity | 13 µM | 0.44 L/P | ≥ 100 µM | 18.2 ± 1.06 µM | 3.9 ± 0.28 µM | 0.44 L/P | 2.55 ± 0.07 µM | 75 L/P | 952 L/P | 
3 | CC(C)C[C@H](NC(=O)CN)C(=O)N[C@@H](CC(C)C)C(=O)N[C@@H](CCCCN)C(=O)N[C@@H](CC(C)C)C(=O)N[C@@H](CC(C)C)C(=O)N[C@@H](CCC(=O)O)C(=O)N[C@@H](CC(C)C)C(=O)N[C@@H](CC(C)C)C(=O)N[C@@H](CC(C)C)C(=O)N[C@@H](CCC(=O)O)C(=O)N[C@@H](C)C(=O)N[C@@H](C)C(=O)NCC(=O)N[C@@H](Cc1c[nH]c2ccccc12)C(N)=O [KEE] | 108 L/P | 657 L/P |  | 11.1 ± 1.84 µM | 0.20 L/P | ≥ 100 µM | 49.4 ± 13.3 µM | 3.75 ± 0.78 µM | 0.20 L/P | 2.05 ± 0.21 µM | 97 L/P | 626 L/P | 
4 | GLLDLLELLLEAAG [DEE] | 164 L/P | 597 L/P |  | 9.91 ± 0.44 µM | 0.38 L/P |  | 61 ± 1.41 µM | 5.55 ± 0.35 µM | 0.63 L/P | 6.05 ± 2.76 µM | 110 L/P | 644 L/P | 8.4 ± 1.56 µM
5 | GLLDLLELLLHAAG [DEH] | 193 L/P | 548 L/P |  | 10.5 ± 4.67 µM | 1.50 L/P |  | 36.5 ± 3.92 µM | 5.35 ± 1.91 µM | 0.75 L/P | 3.6 ± 0.42 µM | 63 L/P | 620 L/P | 20.2 ± 6.72 µM
6 | GLLDLLHLLLEAAG [DHE] | 469 L/P | 581 L/P |  | 11.1 ± 1.91 µM | 0.72 L/P |  | 17.2 ± 1.06 µM | 3.75 ± 0.92 µM | 1.00 L/P | 2.8 ± 0.14 µM | 58 L/P | 566 L/P | 22.7 ± 4.31 µM
7 | GLLDLLHLLLKAAG [DHK] | 183 L/P | 469 L/P |  | 7.3 ± 0.42 µM | 0.38 L/P |  | 20.4 ± 2.05 µM | 1.75 ± 0.49 µM | 0.20 L/P | 1.02 ± 0.12 µM | 47 L/P | 747 L/P | 5.05 ± 1.34 µM
8 | GLLDLLKLLLEAAG [DKE] | 469 L/P | 411 L/P |  | 7.8 ± 1.41 µM | 0.46 L/P |  | 9.93 ± 0.25 µM | 2.1 µM | 0.56 L/P | 1.57 ± 0.33 µM | 21 L/P | 747 L/P | 4.75 ± 0.49 µM
